Source: ChEMBL document CHEMBL4364344, “Design, synthesis and evaluation of activity and pharmacokinetic profile of new derivatives of xanthone and piperazine in the central nervous system” (Bioorg Med Chem Lett, 2019)

Columns and labels:
[1] = Cmax in CD-1 mouse plasma at 5 mg/kg, ip measured up to 480 mins by LC/ESI-MS/MS analysis; format: ADME, organism-based; design: dose 5 mg/kg, route intraperitoneal
[2] = MRT in CD-1 mouse brain at 5 mg/kg, ip measured up to 480 mins by LC/ESI-MS/MS analysis; format: ADME, organism-based
[3] = Mutagenicity in Salmonella typhimurium TA98 at 50 ug/plate preincubated for 20 mins followed by addition of top agar and measured after 48 hrs by Ames test; format: toxicity; settings: salmonella enterica subsp. enterica serovar typhimurium
[4] = biological target: Adenosine receptor A1 (Homo sapiens) (UniProt P30542); test: Displacement of [3H]DPCPX from recombinant human A1 receptor at 10 uM after 60 mins by radiometric scintillation analysis relative to control
Chain of Adenosine receptor A1 (Homo sapiens) (P30542 whole entry): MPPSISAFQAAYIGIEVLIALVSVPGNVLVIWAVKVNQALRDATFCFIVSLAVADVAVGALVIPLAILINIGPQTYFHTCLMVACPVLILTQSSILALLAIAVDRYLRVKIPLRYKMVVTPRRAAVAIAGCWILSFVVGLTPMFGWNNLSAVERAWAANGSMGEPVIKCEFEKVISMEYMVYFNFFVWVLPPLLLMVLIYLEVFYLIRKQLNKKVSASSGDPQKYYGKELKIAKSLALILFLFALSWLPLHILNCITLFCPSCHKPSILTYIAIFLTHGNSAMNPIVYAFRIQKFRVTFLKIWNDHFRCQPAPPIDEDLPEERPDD

[5] = biological target: Adenosine receptor A3 (Homo sapiens) (UniProt P0DMS8); test: Displacement of [125I]AB-MECA from recombinant human A3 receptor at 10 uM after 120 mins by radiometric scintillation analysis relative to control
Chain of Adenosine receptor A3 (Homo sapiens) (P0DMS8 whole entry): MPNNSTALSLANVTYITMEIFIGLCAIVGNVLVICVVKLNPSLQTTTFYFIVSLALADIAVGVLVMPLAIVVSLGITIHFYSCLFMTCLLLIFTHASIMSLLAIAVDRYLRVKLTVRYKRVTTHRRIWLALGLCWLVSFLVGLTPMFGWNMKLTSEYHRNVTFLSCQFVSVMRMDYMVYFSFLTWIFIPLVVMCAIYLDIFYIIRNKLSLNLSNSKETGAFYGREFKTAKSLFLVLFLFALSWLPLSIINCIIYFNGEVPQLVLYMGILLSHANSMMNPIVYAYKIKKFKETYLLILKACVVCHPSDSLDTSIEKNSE

[6] = biological target: Type-1 angiotensin II receptor (Homo sapiens) (UniProt P30556); test: Displacement of [125I][Sar1,Ile8]-AT-II from recombinant human AT1 receptor at 10 uM after 120 mins by radiometric scintillation analysis relative to control
Chain of Type-1 angiotensin II receptor (Homo sapiens) (P30556 whole entry): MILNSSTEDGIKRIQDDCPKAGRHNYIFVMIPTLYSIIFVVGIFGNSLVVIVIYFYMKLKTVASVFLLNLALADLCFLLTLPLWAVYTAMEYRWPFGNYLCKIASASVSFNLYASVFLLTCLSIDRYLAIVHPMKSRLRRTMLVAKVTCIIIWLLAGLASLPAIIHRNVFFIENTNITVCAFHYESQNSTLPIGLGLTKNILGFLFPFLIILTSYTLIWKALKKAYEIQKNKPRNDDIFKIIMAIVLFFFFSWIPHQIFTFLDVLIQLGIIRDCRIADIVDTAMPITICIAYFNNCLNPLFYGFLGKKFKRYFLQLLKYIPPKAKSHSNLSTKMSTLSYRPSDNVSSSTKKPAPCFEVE

[7] = biological target: C-C chemokine receptor type 1 (Homo sapiens) (UniProt P32246); test: Displacement of [125I]MIP-1alpha from recombinant human CCR1 receptor at 10 uM after 120 mins by radiometric scintillation analysis relative to control
Chain of C-C chemokine receptor type 1 (Homo sapiens) (P32246 whole entry): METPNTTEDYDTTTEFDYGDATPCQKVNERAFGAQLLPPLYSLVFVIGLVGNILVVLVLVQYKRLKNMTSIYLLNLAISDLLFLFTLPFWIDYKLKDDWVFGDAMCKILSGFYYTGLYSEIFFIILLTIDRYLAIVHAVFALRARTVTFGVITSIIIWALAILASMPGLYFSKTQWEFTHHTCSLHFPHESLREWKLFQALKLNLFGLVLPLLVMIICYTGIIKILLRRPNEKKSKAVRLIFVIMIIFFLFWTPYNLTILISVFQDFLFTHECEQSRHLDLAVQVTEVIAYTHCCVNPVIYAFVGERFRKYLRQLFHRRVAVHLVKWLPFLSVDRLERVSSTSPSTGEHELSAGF

[8] = biological target: Melanocortin receptor 4 (Homo sapiens) (UniProt P32245); test: Displacement of [125I]NDP-alpha -MSH from recombinant human MC4 receptor at 10 uM after 120 mins by radiometric scintillation counting analysis relative to control
Chain of Melanocortin receptor 4 (Homo sapiens) (P32245 whole entry): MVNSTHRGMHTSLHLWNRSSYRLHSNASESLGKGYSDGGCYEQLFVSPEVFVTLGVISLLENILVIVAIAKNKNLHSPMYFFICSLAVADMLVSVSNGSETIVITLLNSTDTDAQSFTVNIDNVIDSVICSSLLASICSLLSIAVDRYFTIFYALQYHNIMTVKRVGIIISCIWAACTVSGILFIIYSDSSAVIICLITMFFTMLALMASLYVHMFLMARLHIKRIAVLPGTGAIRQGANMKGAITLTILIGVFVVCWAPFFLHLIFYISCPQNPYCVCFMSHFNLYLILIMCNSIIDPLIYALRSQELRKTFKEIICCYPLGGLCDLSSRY

[9] = biological target: Melatonin receptor type 1A (Homo sapiens) (UniProt P48039); test: Displacement of [125I]2-iodomelatonin from recombinant human MT1 receptor at 10 uM after 240 mins by radiometric scintillation counting analysis relative to control
Chain of Melatonin receptor type 1A (Homo sapiens) (P48039 whole entry): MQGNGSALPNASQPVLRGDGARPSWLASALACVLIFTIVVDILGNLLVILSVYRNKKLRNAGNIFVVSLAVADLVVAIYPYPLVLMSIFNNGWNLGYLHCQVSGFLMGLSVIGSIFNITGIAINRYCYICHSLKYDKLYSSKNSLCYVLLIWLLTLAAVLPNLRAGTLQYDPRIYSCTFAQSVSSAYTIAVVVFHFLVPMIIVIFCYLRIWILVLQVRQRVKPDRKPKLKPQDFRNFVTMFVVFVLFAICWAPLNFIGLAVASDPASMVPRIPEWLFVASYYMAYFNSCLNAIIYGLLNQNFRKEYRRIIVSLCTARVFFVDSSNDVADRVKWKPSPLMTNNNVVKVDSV

[10] = biological target: Muscarinic acetylcholine receptor M2 (Homo sapiens) (UniProt P08172); test: Displacement of [3H]AF-DX 384 from recombinant human M2 receptor at 10 uM after 60 mins by radiometric scintillation analysis relative to control
Chain of Muscarinic acetylcholine receptor M2 (Homo sapiens) (P08172 whole entry): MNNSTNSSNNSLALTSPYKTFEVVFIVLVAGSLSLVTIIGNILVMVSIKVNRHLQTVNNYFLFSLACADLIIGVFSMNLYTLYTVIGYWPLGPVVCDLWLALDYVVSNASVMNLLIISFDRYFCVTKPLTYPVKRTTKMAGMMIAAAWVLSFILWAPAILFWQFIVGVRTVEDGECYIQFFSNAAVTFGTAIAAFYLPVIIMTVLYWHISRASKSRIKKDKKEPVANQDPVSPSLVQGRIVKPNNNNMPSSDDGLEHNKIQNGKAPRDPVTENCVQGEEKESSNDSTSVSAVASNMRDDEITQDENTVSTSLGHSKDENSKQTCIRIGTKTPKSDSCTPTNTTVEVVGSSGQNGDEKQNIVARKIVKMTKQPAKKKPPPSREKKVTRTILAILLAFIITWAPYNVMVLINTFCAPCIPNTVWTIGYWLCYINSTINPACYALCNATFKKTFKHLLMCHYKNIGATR

[11] = biological target: Mu-type opioid receptor (Homo sapiens) (UniProt P35372); test: Displacement of [3H]DAMGO from recombinant human MOR receptor at 10 uM after 120 mins by radiometric scintillation analysis relative to control
Chain of Mu-type opioid receptor (Homo sapiens) (P35372 whole entry): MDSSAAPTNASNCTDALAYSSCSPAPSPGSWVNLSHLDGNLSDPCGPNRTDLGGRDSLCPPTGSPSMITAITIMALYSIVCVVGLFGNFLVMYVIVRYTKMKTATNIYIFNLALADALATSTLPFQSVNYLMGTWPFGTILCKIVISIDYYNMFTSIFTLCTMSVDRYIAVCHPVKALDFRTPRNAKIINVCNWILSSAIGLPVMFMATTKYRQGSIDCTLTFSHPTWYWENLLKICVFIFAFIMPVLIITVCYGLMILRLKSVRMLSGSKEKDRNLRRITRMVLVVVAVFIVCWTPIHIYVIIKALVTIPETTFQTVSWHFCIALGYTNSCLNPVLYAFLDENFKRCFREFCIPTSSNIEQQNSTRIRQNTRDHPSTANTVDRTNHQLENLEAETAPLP

[12] = biological target: Nociceptin receptor (Homo sapiens) (UniProt P41146); test: Displacement of [3H]nociceptin from recombinant human ORL1 receptor at 10 uM after 60 mins by radiometric scintillation analysis relative to control
Chain of Nociceptin receptor (Homo sapiens) (P41146 whole entry): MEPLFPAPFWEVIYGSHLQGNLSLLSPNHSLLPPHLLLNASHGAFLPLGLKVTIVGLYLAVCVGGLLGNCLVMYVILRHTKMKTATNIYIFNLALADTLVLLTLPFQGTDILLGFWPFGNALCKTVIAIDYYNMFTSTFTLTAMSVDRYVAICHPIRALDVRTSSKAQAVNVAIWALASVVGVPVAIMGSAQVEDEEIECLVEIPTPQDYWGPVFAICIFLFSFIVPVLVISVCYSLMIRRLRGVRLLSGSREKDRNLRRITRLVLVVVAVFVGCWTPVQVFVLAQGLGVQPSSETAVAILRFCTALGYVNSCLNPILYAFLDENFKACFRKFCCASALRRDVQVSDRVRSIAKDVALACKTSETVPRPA

[13] = biological target: 5-hydroxytryptamine receptor 1B (Homo sapiens) (UniProt P28222); test: Displacement of [3H]GR125743 from recombinant human 5-HT1B receptor at 10 uM after 60 mins by radiometric scintillation analysis relative to control
Chain of 5-hydroxytryptamine receptor 1B (Homo sapiens) (P28222 whole entry): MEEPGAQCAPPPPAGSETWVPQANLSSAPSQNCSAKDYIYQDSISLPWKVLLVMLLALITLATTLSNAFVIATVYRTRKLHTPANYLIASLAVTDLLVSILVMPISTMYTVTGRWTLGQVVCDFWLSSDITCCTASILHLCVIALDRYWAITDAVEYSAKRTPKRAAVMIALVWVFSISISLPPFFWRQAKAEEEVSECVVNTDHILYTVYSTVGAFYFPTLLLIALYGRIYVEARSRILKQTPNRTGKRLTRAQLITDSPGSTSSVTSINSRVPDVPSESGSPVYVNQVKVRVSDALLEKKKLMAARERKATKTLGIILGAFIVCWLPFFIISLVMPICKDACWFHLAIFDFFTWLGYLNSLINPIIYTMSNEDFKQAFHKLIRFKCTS

[14] = biological target: 5-hydroxytryptamine receptor 5A (Homo sapiens) (UniProt P47898); test: Displacement of [3H]LSD from recombinant human 5-HT5A receptor at 10 uM after 120 mins by radiometric scintillation analysis relative to control
Chain of 5-hydroxytryptamine receptor 5A (Homo sapiens) (P47898 whole entry): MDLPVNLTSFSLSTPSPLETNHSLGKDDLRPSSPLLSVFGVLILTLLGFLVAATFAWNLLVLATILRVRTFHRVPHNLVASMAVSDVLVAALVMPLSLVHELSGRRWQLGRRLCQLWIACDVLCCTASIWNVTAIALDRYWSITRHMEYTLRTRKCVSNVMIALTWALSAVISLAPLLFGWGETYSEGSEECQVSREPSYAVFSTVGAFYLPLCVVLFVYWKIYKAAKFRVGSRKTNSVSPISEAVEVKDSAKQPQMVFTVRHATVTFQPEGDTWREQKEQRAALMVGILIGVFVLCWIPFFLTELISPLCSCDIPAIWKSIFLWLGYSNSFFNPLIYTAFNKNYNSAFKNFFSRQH

[15] = biological target: L-type calcium channel (verapamil binding site) (Homo sapiens, UniProt O60840+Q01668+Q13698+Q13936); test: Displacement of [3H] Diltiazem from human L-type calcium channel verapamil binding site at 10 uM after 20 hrs by scintillation analysis relative to control; format: protein assay; settings: probe [3H] Diltiazem
[16] = biological target: 5-hydroxytryptamine receptor 2A (Homo sapiens, UniProt P28223); test: Displacement of [3H]ketanserin from recombinant human 5-HT2A receptor after 60 mins by radiometric scintillation analysis
Chain of 5-hydroxytryptamine receptor 2A (P28223 whole entry): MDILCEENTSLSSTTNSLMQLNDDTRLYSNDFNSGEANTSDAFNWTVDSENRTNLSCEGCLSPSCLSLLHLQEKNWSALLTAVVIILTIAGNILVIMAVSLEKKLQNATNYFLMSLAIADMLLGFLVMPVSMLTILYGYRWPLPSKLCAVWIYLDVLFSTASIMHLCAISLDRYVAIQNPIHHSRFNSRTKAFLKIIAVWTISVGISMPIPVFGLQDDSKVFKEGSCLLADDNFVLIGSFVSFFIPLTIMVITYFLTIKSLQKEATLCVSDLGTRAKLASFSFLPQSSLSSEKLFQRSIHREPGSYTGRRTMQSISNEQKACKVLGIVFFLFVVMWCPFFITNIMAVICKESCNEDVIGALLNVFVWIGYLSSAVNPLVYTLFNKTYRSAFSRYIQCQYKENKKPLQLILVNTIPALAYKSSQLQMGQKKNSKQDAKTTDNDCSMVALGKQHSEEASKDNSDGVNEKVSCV

[17] = Displacement of [3H]batrachotoxinin from rat brain sodium channel site 2 after 60 mins by scintillation counting analysis

`Cl.Cl.O=c1c2cc(Cl)ccc2oc2ccc(CN3CCN(CCOCCO)CC3)cc12` gave a Cmax [1] of 1.92 µg/mL, an MRT [2] of 2.58 h and an Activity_index [3] of 0.76. It also gave an inhibition [4] of 0.6%, an inhibition [5] of 42.9% and an inhibition [6] of 8.4%. It also gave an inhibition [7] of -3.1%, an inhibition [8] of -4% and an inhibition [9] of 11.1%. It also gave an inhibition [10] of 35.9%, an inhibition [11] of 11.8% and an inhibition [12] of 6.5%. It also gave an inhibition [13] of 32.7%, an inhibition [14] of 13.8% and an inhibition at 20 h, 10 µM [15] of 42.2%. For the same molecule, the Ki [16] was 2.02 µM and the Ki [17] was 1.34 µM.
